Data published in US8680100B2, “Sulfonylhydrazide compounds for treating proliferative disorders” (Synta Pharmaceuticals Corp., priority 2008, dated 2014).

System: HSP70
Test: Hsp70 Activity Essay (HSP70 ELISA on lysates of MDA435 cells)
Assay type: cell-based
Details: concentration that increases HSP70 to 50% of maximum increase by N′1,N′3-dimethyl-N′1,N′3-di(phenylcarbonothioyl)malonohydrazide
Protocol: Each well was plated with MDA435 cells using DMEM 10% FBS Phenol-red free medium 2.5 k/well and incubated in a 37° C./5% CO2 incubator for a minimum of 6 hours to obtain good cell adherence.
Dilutions of each test compound were prepared in DMSO and DMEM 10% FBS Phenol-red free medium. The final concentration in each well was 1250 nM, 125 nM, 12.5 nM or 1.25 nM of test compound and 0.25% DMSO. 0.25% DMSO was used as a negative control. Lysis buffer (any lysis buffer suitable for use in the Assay Designs kit, e.g., such as that described in the kit instructions) was then added (amount used is one quarter of the volume already present in each plate) and the mixtures were then shaken for 10 minutes.
150 μL of “Can Get Signal” Immunoreaction Enhancer Solution (Solution 1 for primary antibody, TOYOBO, Catalogue No. NKB-101) were added to each of a series of ELISA plates. The ELISA plates were obtained from the HSP70 ELISA Kit (catalogue number EKS-700B) purchased from Assay Designs (Ann Arbor, Mich.). After the cells were lysed, 50 μL of lysate were taken from each well and added to an ELISA plate, resulting in a 4 fold dilution of the lysate (50 μL of lysate and 150 μL of Can Get Signal solution). The plates were covered with adhesive tape and incubated overnight at 4° C.;
In the morning, the liquid was aspirated from all wells and 400 μL of Washing Buffer made from 20× concentrate provided in the ELISA Kit and distilled water were added and then removed by aspiration. The addition of Washing Buffer and aspiration was repeated four times. After the fourth wash, the plate were inverted to a paper towel and carefully patted dry. 100 μL of HSP70 antibody provided in ELISA Kit were added to each well. Each well was covered with adhesive tape and incubated for one hour at room temperature. Washing Buffer was then added followed by removal with aspiration. The addition of Washing Buffer and aspiration was repeated four times, after which the plates were inverted and patted dry. 100 μL of HSP70 conjugate (provided in the ELISA Kit) were added to the wells. Each well was then covered with adhesive tape and incubated for one hour at room temperature. Washing Buffer was then added followed by removal with aspiration. The addition of Washing Buffer and aspiration was repeated four times, after which the plates were inverted and patted dry.
100 μL of the TMB Substrate (obtained from the ELISA Kit) were added to the wells (color development was visible in 1 minute). The wells were incubated until saturated color development (usually 5-15 minutes). Stop Solution 2 (provided in the ELISA Kit) was added in the same order TMB Substrate was added. The OD450 was then obtained using a plate reader. The EC50 for the compounds was calculated using N′^1,N′^3-dimethyl-N′^1,N′^3-di(phenylcarbonothioyl)malonohydrazide on the same plate as a control (concentration that increases HSP70 to 50% of maximum increase by N′^1,N′^3-dimethyl-N′^1,N′^3-di(phenylcarbonothioyl)malonohydrazide). The EC50 for each of the compounds tested is shown in example 1.

| SMILES | EC50 [nM] |
| --- | --- |
| CN(NC(=O)CS(=O)(=O)NN(C)C(=S)c1cccc(F)c1)C(=S)c1cccc(F)c1 [Compound 1, N′-(3-fluorophenylcarbonothioyl)-2-(2-(3-fluorophenylcarbonothioyl)-2-methylhydrazinyl)-N′-methyl-2-oxoethanesulfonohydrazide] | 60 |
| CCN(NS(=O)(=O)CC(=O)NN(C)C(=S)c1ccccc1)C(=S)c1ccccn1 [Compound 6, N′-ethyl-2-(2-methyl-2-(phenylcarbonothioyl)hydrazinyl)-2-oxo-N′-(pyridine-2-carbonothioyl) ethanesulfonohydrazide] | 25 |
| CN(NC(=O)CS(=O)(=O)NN(C)C(=S)c1cnccn1)C(=S)c1ccccc1 [Compound 9, N′-methyl-2-(2-methyl-2-(phenylcarbonothioyl)hydrazinyl)-2-oxo-N′-(pyrazine-2-carbonothioyl)-ethanesulfonohydrazide] | 971 |
| CN(NC(=O)CS(=O)(=O)NN(C)C(=S)c1cccnc1)C(=S)c1ccccc1 [Compound 10, N′-methyl-2-(2-methyl-2-(phenylcarbonothioyl)hydrazinyl)-2-oxo-N′-(pyridine-3-carbonothioyl)-ethanesulfonohydrazide] | 180 |
| CN(NC(=O)CS(=O)(=O)NN(C)C(=S)c1ccccc1)C(=S)c1ccncc1 [Compound 11, N′-methyl-2-(2-methyl-2-(pyridine-4-carbonothioyl)hydrazinyl)-2-oxo-N′-(phenylcarbonothioyl)ethane-sulfonohydrazide] | 1030 |
| CN(NC(=O)CS(=O)(=O)NN(C)C(=S)c1ccccc1)C(=S)c1cccnc1 [Compound 13, N′-methyl-2-(2-methyl-2-(pyridine-3-carbonothioyl)hydrazinyl)-2-oxo-N′-(phenylcarbonothioyl)ethane-sulfonohydrazide] | 202 |
| CN(NC(=O)CS(=O)(=O)NN(C)C(=S)c1ccoc1)C(=S)c1ccoc1 [Compound 17, N′-(furan-3-carbonothioyl)-2-(2-(furan-3-carbonothioyl)-2-methylhydrazinyl)-N′-methyl-2-oxoethanesulfonohydrazide] | 127 |
| CN(NC(=O)CS(=O)(=O)NN(C)C(=S)c1ccco1)C(=S)c1ccco1 [Compound 18, N′-(furan-2-carbonothioyl)-2-(2-(furan-2-carbonothioyl)-2-methylhydrazinyl)-N′-methyl-2-oxoethanesulfonohydrazide] | 15 |
| CCN(CC)C(=S)N(C)NC(=O)CS(=O)(=O)NN(C)C(=S)N(CC)CC [Compound 20, 2-(2-(2-(diethylcarbamothioyl)-2-methylhydrazinyl)-2-oxoethylsulfonyl)-N,N′-diethyl-1-methylhydrazinecarbothioamide] | 85 |
| CN(NC(=O)CS(=O)(=O)NN(C)C(=S)C1CC1)C(=S)C1CC1 [Compound 28, N′-(cyclopropanecarbonothioyl)-2-(2-(cyclopropanecarbonothioyl)-2-methylhydrazinyl)-N′-methyl-2-oxoethanesulfonohydrazide] | 98 |
| CCN(NC(=O)CS(=O)(=O)NN(CC)C(=S)C1CC1)C(=S)C1CC1 [Compound 29, N′-(cyclopropanecarbonothioyl)-2-(2-(cyclopropanecarbonothioyl)-2-ethylhydrazinyl)-N′-ethyl-2-oxoethanesulfonohydrazide] | 146 |
| CCN(NC(=O)CS(=O)(=O)NN(CC)C(=S)C1(C)CC1)C(=S)C1(C)CC1 [Compound 30, N′-ethyl-2-(2-ethyl-2-(1-methylcyclopropanecarbonothioyl) hydrazinyl)-N′-(1-methylcyclopropanecarbonothioyl)-2-oxoethanesulfonohydrazide] | 49 |
| CCN(CC)C(=S)N(C)NS(=O)(=O)CC(=O)NN(C)C(=S)C1CC1 [Compound 31, 2-(2-(2-(cyclopropanecarbonothioyl)-2-methylhydrazinyl)-2-oxoethylsulfonyl)-N,N′-diethyl-1-methylhydrazinecarbothioamide] | 174 |
| CN(NC(=O)CS(=O)(=O)NN(C)C(=S)C1CCC1)C(=S)C1CCC1 [Compound 32, N′-(cyclobutanecarbonothioyl)-2-(2-(cyclobutanecarbonothioyl)-2-methylhydrazinyl)-N′-methyl-2-oxoethanesulfonohydrazide] | 958 |
| CCOC(=S)N(C)NS(=O)(=O)CC(=O)NN(C)C(=S)C1CC1 [Compound 33, O-ethyl 2-(2-(2-(cyclopropanecarbonothioyl)-2-methylhydrazinyl)-2-oxoethylsulfonyl)-1-methylhydrazinecarbothioate] | 143 |
| CCN(NS(=O)(=O)CC(=O)NN(C)C(=S)C1CC1)C(=S)c1cnccn1 [Compound 35, 2-(2-(cyclopropanecarbonothioyl)-2-methylhydrazinyl)-N′-ethyl-2-oxo-N′-(pyrazine-2-carbonothioyl)-ethanesulfonohydrazide] | 1020 |
| CN(NS(=O)(=O)CC(=O)NN(C)C(=S)C1CC1)C(=S)c1ccccc1 [Compound 36, 2-(2-(cyclopropanecarbonothioyl)-2-methylhydrazinyl)-N′-methyl-2-oxo-N′-(phenylcarbonothioyl)ethane-sulfonohydrazide] | 76 |
| CN(NC(=O)CS(=O)(=O)NN(C)C(=S)C1CC1)C(=S)c1ccccc1 [Compound 39, N′-(cyclopropanecarbonothioyl)-N′-methyl-2-(2-methyl-2-(phenylcarbonothioyl)hydrazinyl)-2-oxoethanesulfonohydrazide] | 22 |
| CN(NS(=O)(=O)CC(=O)NN(C)C(=S)C1CCC1)C(=S)c1ccccc1 [Compound 40, 2-(2-(cyclobutanecarbonothioyl)-2-methylhydrazinyl)-N′-methyl-2-oxo-N′-(phenylcarbonothioyl)ethane-sulfonohydrazide] | 1120 |
| CN(NC(=O)CS(=O)(=O)NN(C)C(=S)c1ccc2c(c1)OCO2)C(=S)c1ccccc1 [Compound 42, N′-(benzo[d][1,3]dioxole-5-carbonothioyl)-N′-methyl-2-(2-methyl-2-(phenylcarbonothioyl)hydrazinyl)-2-oxoethanesulfonohydrazide] | 56 |
| CN(NC(=O)CS(=O)(=O)NN(C)C(=S)c1ccc(N2CCOCC2)cc1)C(=S)c1ccccc1 [Compound 43, N′-methyl-2-(2-methyl-2-(phenylcarbonothioyl)hydrazinyl)-N′-(4-morpholinophenylcarbonothioyl)-2-oxoethanesulfonohydrazide] | 74 |
| CSC(=S)N(C)NS(=O)(=O)CC(=O)NN(C)C(=S)c1ccccc1 [Compound 44, methyl 1-methyl-2-(2-(2-methyl-2-(phenylcarbonothioyl)hydrazinyl)-2-oxoethylsulfonyl) hydrazinecarbodithioate] | 228 |
| CCN(NS(=O)(=O)CC(=O)NN(C)C(=S)c1ccccc1)C(=S)N1CCOCC1 [Compound 50, N′-ethyl-2-(2-methyl-2-(phenylcarbonothioyl)hydrazinyl)-N′-(morpholine-4-carbonothioyl)-2-oxoethanesulfonohydrazide] | 114 |
| CN(NC(=O)CS(=O)(=O)NN(C)C(=S)N1CCCC1)C(=S)c1ccccc1 [Compound 51, N′-methyl-2-(2-methyl-2-(phenylcarbonothioyl)hydrazinyl)-2-oxo-N′-(pyrrolidine-1-carbonothioyl)-ethanesulfonohydrazide] | 57 |
| CN(NC(=O)CS(=O)(=O)NN(C)C(=S)N1CCCCC1)C(=S)c1ccccc1 [Compound 52, N′-methyl-2-(2-methyl-2-(phenylcarbonothioyl)hydrazinyl)-2-oxo-N′-(piperidine-1-carbonothioyl)-ethanesulfonohydrazide] | 87 |
| CN(NS(=O)(=O)CC(=O)NN(C)C(=S)N1CCCC1)C(=S)c1ccccc1 [Compound 53, N′-methyl-2-(2-methyl-2-(pyrrolidine-1-carbonothioyl)hydrazinyl)-2-oxo-N′-(phenylcarbonothioyl)ethane-sulfonohydrazide] | 102 |
| CN(NS(=O)(=O)CC(=O)NN(C)C(=S)N1CCCCC1)C(=S)c1ccccc1 [Compound 54, N′-methyl-2-(2-methyl-2-(piperidine-1-carbonothioyl)hydrazinyl)-2-oxo-N′-(phenylcarbonothioyl)ethane-sulfonohydrazide] | 108 |
